Data taken from patent US20220332706A1, “CRYSTALLINE FORMS OF A JAK2 INHIBITOR” (Impact Biomedicines, Inc., priority 2019, published 2022).
≈ marks a conversion by molar mass, not a printed value. Like-named read-outs stand apart in the source and are kept apart here.

Assays:
Assay type in all cases: physicochemical
[1] = Relative stability (competitive ripening) study of Forms A and B; conditions: for Final Form Observed: seven days, suspension of ~10 mg Form A and ~10 mg Form B
Method: Saturated suspensions of Form A were prepared by stirring excess Form A in the specified solvent system. The suspension was stirred overnight at 25° C. A clarifying filtration was performed and the filtrate was added to a 2 mL vial containing ˜10 mg of Form A and ˜10 mg of Form B. The resulting suspensions were stirred at 25° C. for seven days, isolated, dried under vacuum for 45 minutes, and analyzed by FT-Raman.

[2] = Solubility assessment, visually estimated by dosing solvent aliquots into 10.0 mg API; conditions: thermodynamic from solid
Method: Solubility was assessed in an array of diverse solvents in order to facilitate the selection of solvent systems and corresponding dosing strategies for the subsequent crystal-form screening experiments.

[3] = Moisture sorption/desorption isotherms (DVS); conditions: 25° C., first sorption cycle 0 to 75% RH, desolvation with solvent exchange induced by water vapour
Method: Moisture sorption/desorption isotherms. All experiments were performed on a DVS-1 automated gravimetric vapour sorption analyser (Surface Measurement Systems Ltd., London, UK). The DVS measures the uptake and loss of vapour gravimetrically using a Cahn D200 recording ultra-microbalance with a mass resolution of ±0.1 μg. A controlled relative humidity is generated by mixing different proportions of dry and water saturated carrier gas streams (monitored by mass flow controllers). The temperature was maintained constant, ±0.1° C., by enclosing the entire system in a temperature-controlled incubator. A sample size around 10 mg was used. Prior to being exposed to any water vapour the samples were dried at 0% relative humidity (RH) to remove any surface water present and establish a dry, baseline mass. […] Two consecutive cycles were recorded. From the complete moisture sorption and desorption profile an isotherm was calculated using the DVS Advanced Analysis Suite v3.6. […]
DVS curves are carried out at 25° C. on hexafluoroisopropanol solvate (FIG. 18). After 6 hours under nitrogen a weight loss of 5% is recorded (a partial desolvation is observed with a pre-treatment at 25° C.). During the first sorption cycle, an important weight loss is recorded between 0 and 75% RH (around 30%). […]

[4] = Characterization of crystal forms: behaviour under ambient conditions

SMILES: Cc1cnc(Nc2ccc(OCCN3CCCC3)cc2)nc1Nc1cccc(S(=O)(=O)NC(C)(C)C)c1 [Form A]
- relative stability of hydrates ([1]; 25° C., over the entire water activity range): stable hydrate
- Final Form Observed ([1]; Acetone:Water (83:17), water activity 0.75, 25 °C): Form A
- Final Form Observed ([1]; Ethanol, water activity 0, 25 °C): Form A
- Final Form Observed ([1]; Methanol:Water (73:27), water activity 0.5, 25 °C): Form A
- Final Form Observed ([1]; Water, water activity 1, 25 °C): Form A
- solubility ([2]; all other solvents evaluated (of 12; not DMSO, MeOH, water), organic solvent or mixture, in all other solvents evaluated, read-out: low solubility): ≤ 5000 µg/mL
- solubility ([2]; organic solvent or mixture, DCM, 40° C., read-out: Solubility at 40° C.): < 5000 µg/mL
- solubility ([2]; organic solvent or mixture, DCM, RT, read-out: Solubility at RT): < 5000 µg/mL
- solubility ([2]; organic solvent or mixture, DMSO, RT, read-out: Solubility at RT): > 400000 µg/mL
- solubility ([2]; organic solvent or mixture, EtOAc, 40° C., read-out: Solubility at 40° C.): < 5000 µg/mL
- solubility ([2]; organic solvent or mixture, EtOAc, RT, read-out: Solubility at RT): < 5000 µg/mL
- solubility ([2]; organic solvent or mixture, IPA, 40° C., read-out: Solubility at 40° C.): < 5000 µg/mL
- solubility ([2]; organic solvent or mixture, IPA, RT, read-out: Solubility at RT): < 5000 µg/mL
- solubility ([2]; organic solvent or mixture, IPA:water (9:1) v/v, 40° C., read-out: Solubility at 40° C.): > 5000 µg/mL
- solubility ([2]; organic solvent or mixture, IPA:water (9:1) v/v, RT, read-out: Solubility at RT): < 5000 µg/mL
- solubility ([2]; organic solvent or mixture, IPE, 40° C., read-out: Solubility at 40° C.): < 5000 µg/mL
- solubility ([2]; organic solvent or mixture, IPE, RT, read-out: Solubility at RT): < 5000 µg/mL
- solubility ([2]; organic solvent or mixture, MTBE, 40° C., read-out: Solubility at 40° C.): < 5000 µg/mL
- solubility ([2]; organic solvent or mixture, MTBE, RT, read-out: Solubility at RT): < 5000 µg/mL
- solubility ([2]; organic solvent or mixture, MeCN, 40° C., read-out: Solubility at 40° C.): < 5000 µg/mL
- solubility ([2]; organic solvent or mixture, MeCN, RT, read-out: Solubility at RT): < 5000 µg/mL
- solubility ([2]; organic solvent or mixture, MeOH, RT, read-out: Solubility at RT): > 400000 µg/mL
- solubility ([2]; organic solvent or mixture, THF, 40° C., read-out: Solubility at 40° C.): < 5000 µg/mL
- solubility ([2]; organic solvent or mixture, THF, RT, read-out: Solubility at RT): < 5000 µg/mL
- solubility ([2]; organic solvent or mixture, Toluene, 40° C., read-out: Solubility at 40° C.): < 5000 µg/mL
- solubility ([2]; organic solvent or mixture, Toluene, RT, read-out: Solubility at RT): < 5000 µg/mL
- solubility ([2]; Water, RT, read-out: Solubility at RT): 100000 to 400000 µg/mL (≈ 191 to 762 mM)
- solubility ([2]; in DMSO, MeOH, and water): > 100000 µg/mL

SMILES: Cc1cnc(Nc2ccc(OCCN3CCCC3)cc2)nc1Nc1cccc(S(=O)(=O)NC(C)(C)C)c1 [Form H]
- form change during DVS [3]: transform into Form B

SMILES: Cc1cnc(Nc2ccc(OCCN3CCCC3)cc2)nc1Nc1cccc(S(=O)(=O)NC(C)(C)C)c1 [Form I]
- physical stability of the solvate [4]: efflorescent solvate
